Where a SMILES comes first, the peptide text is derived from it. [ ]: non-standard residue; d: D form. The star is where a group is joined. NH(TEMPO-4-yl) = CC1(C)CC(N*)CC(C)(C)N1[O]; Orn = NCCC[C@H](N)C(=O)O; Cbz = O=C(OCc1ccccc1)*; Boc = CC(C)(C)OC(=O)*
Columns and labels:
[1] = system: mice exposed to total body irradiation; assay: Survival of mice after total body irradiation; format: in vivo, mouse
Procedure: Mice received intraperitoneal injection of 10 mg. per kilogram of each of the chemicals indicated in FIG. 5, then 24 hours later received 9.75 Gy total body irradiation according to published methods. Mice were followed for survival according to IACUC regulations. […] (P=0.0008).
Groups of 15 mice received intraperitoneal injection of 10 mg. per kilogram of each indicated GS-nitroxide compound or carrier (Cremphora plus alcohol at 1 to 1 ratio, then diluted 1 to 10 in distilled water). Mice received 10 mg per kilogram intra-peritoneal injection 24 hours prior to total body irradiation. Control mice received radiation alone. […] (P=0.0005)

[2] = system: KM101 human marrow stromal cells; assay: Irradiation survival curves of KM101 cells; format: cell-based
Procedure: KM101 cells were incubated in media alone or in JP4-039 (10 μM) for one hour before irradiation or 24 hours after irradiation. The cells were irradiated to doses ranging from 0 to 6 Gy and plated in 4 well plates. Seven days later the cells were stained with crystal violet and colonies of greater than 50 cells counted. Cells incubated in JP4-039 either before or after irradiation were more radioresistant as shown by an increased shoulder of n=2.3±0.2 or 2.2±0.2, respectively compared to n of 1.1±0.1for the KM101 cells (p=0.0309 or 0.0386, respectively).

[3] = system: mouse embryonic cells (MEC); assay: ActD-induced apoptosis in MECs (PS externalization, caspase-3, DNA fragmentation); format: cell-based
Excerpt: Cells that annexin V-positive and PI-negative were considered apoptotic.

mouse embryonic cells [4] = assay: Gamma irradiation induced superoxide generation and cardiolipin oxidation; format: cell-based; conditions: 10 Gy, 20 μM
Procedure: Oxidation-dependent fluorogenic dye, DHE was used to evaluate intracellular production of superoxide radicals. DHE is cell permeable and, in the presence of superoxide, is oxidized to fluorescent ethidium which intercalates into DNA. Briefly, cells were treated with 5 μM DHE for 30 min at the end of incubation. Cells were then collected by trypsinization and resuspended in PBS. The fluorescence of ethidium was measured using a FACScan flow cytometer (Becton-Dickinson, Rutherford, N.J.) supplied with the CellQuest software. Mean fluorescence intensity from 10,000 cells was acquired using a 585/42 nm bandpass filter.
CL hydroperoxides were determined by fluorescence HPLC of products formed in MP-11-catalyzed reaction with a fluorogenic substrate, Amplex Red. […] Shimadzu LC-100AT vp HPLC system equipped with fluorescence detector (RF-10Axl, Ex/Em=560/590 nm) and autosampler (SIL-10AD vp) were used for the analysis of products separated by HPLC (Eclipse XDB-C18 column, 5 μm, 150×4.6 mm) Mobile phase was composed of NaH2PO4 (25 mM, pH 7.0)/methanol (60:40 v/v).
(A) superoxide generation. […] Ethidium fluorescence was analyzed using a FACScan flow cytometer supplied with CellQuest software. Mean fluorescence intensity from 10,000 cells was acquired using a 585-nm bandpass filter. […] Cardiolipin hydroperoxides were determined using a fluorescent HPLC-based Amplex Red assay. […]

mouse embryonic cells [5] = assay: Gamma-irradiation dose survival curves of mouse embryonic cells; format: cell-based; conditions: 20 μM pre- (10-min) or post-treated (1-h)
Procedure: Cells were plated in 35-mm Petri dishes with 2 ml culture medium at a density between 100 and 1000 cells per dish. Cells were treated with GS-nitroxide (XJB-5-125) either before (10-min) or after (1-h) γ-irradiation. XJB-5-125 was removed from the medium 4-h post-irradiation. Colonies were fixed and stained with 0.25% crystal violet and 10% formalin (35% v/v) in 80% methanol for 30 min after a 9-day incubation period, and those of ≧50 cells were counted as survivors. The surviving fraction was calculated as the plating efficiency of the samples relative to that of the control.
Cells were pre- (10-min) or post-treated (1-h) with XJB-5-125 (20 μM), which was removed after 4-h incubation period. The surviving fraction was calculated as the plating efficiency of the samples relative to that of the control. The data was fitted to a single-hit multitarget model using SigmaPlot 9.0 (Systat Software). Data presented are the mean±S.E. (n=3).

Compound | survival of mice exposed to 9.75 Gy total body irradiation ([1]; 10 mg per kilogram intraperitoneal 24 hours before irradiation) | survival of mice exposed to 9.5 Gy total body irradiation ([1]; 10 mg per kilogram intraperitoneal 24 hours prior to irradiation) | n (shoulder on the survival curve) ([2]; 10 μM 24 hours after irradiation) | change in Do ([2]; 10 μM before or after irradiation) | n (shoulder on the survival curve) ([2]; 10 μM one hour before irradiation) | concentration range of activity in cells (dose-dependent attenuation of ActD-induced PS externalization) [3] [µM] | gamma irradiation induced cardiolipin peroxidation (mouse embryonic cells [4]) | gamma irradiation induced superoxide generation (mouse embryonic cells [4]; 10-min before or 1-h after irradiation) | radiation mitigation and protection (FIG. 15 survival curves) (mouse embryonic cells [5])
CC(C)C[C@@H](/C=C/CC(=O)NC1CC(C)(C)N([O])C(C)(C)C1)NC(=O)OC(C)(C)C [JP4-039, (S,E)-5-(tert-Butoxycarbonylamino)-7-methyloct-3-enoic acid-TEMPO] | significant increase in survival | increases survival | 2.2±0.2 | no significant change | 2.3±0.2 | – | – | – | –
CC(C)C[C@H](NC(=O)OC(C)(C)C)C(=O)N[C@H](Cc1ccccc1)C(=O)N1CCC[C@H]1C(=O)N[C@H](C(=O)N[C@@H](CCCNC(=O)OCc1ccccc1)C(=O)NC1CC(C)(C)N([O])C(C)(C)C1)C(C)C [XJB-5-125] (Boc-L[dF]PV[Orn](Cbz)-{NH(TEMPO-4-yl)}) | – | – | – | – | – | 2.5 to 20 | protects | protects | radiation mitigator as well as a protector
